Results from patent US20130196971A1, “FATTY ACID SYNTHASE INHIBITORS” (priority 2010, published 2013).

Molecular target: FAS (Homo sapiens, UniProt P49327)
Experiment: FAS Assay (Assay #1 residual NADPH detection or Assay #2 CoA detection with CPM dye)
Type: biochemical
Settings: FAS inhibition, measured through Assay #1 or Assay #2; one experiment or average of multiple experiments
Experimental: FAS activity was measured through one of the two following assays.
Inhibition of FAS activity can be measured based on the detection of residual NADPH substrate after the FAS assay is quenched. This assay is run as a 10 μL endpoint assay in 384-well format, where the reaction contains 20 μM malonyl-CoA, 2 μM acetyl-CoA, 30 μM NADPH and 40 nM FAS in 50 mM sodium phosphate, pH 7.0. The assay is run by sequentially dispensing 5 μl of a malonyl-CoA solution, then enzyme solution (containing the acetyl-CoA, and NADPH) into a black, low volume assay plate (Greiner 784076) pre-dispensed with 100 nL compound solutions in DMSO. The reaction is incubated at ambient temperature for 60 minutes, then quenched with 5 μL of a developing solution composed of 90 μM resazurin, 0.3 IU/ml diaphorase in 50 mM sodium phosphate, pH 7.0. The developed reaction is read on a Molecular Devices Analyst or Acquest (or equivalent) plate reader using a 530 nm excitation wavelength filter, a 580 nm emission filter, and 561 nm dichroic filter. The test compounds are prepared in neat DMSO at a concentration of 10 mM. For inhibition curves, compounds are diluted using a three fold serial dilution and tested at 11 concentrations (e.g. 25 μM-0.42 nM). Curves are analysed using ActivityBase and XLfit, and results are expressed as pIC50 values.
Inhibition of FAS can also be quantified based on the detection of the CoA products with a thio-reactive coumarin dye. This assay is run as a 10 μL endpoint assay in 384-well format, where the reaction contains 20 μM malonyl-CoA, 20 μM acetyl-CoA, 40 μM NADPH and 2 nM FAS in 50 mM sodium phosphate, pH 7.0, and 0.04% Tween-20. The assay is run by adding 5 μL enzyme solution to a black, low volume assay plate (Greiner 784076) pre-dispensed with 100 nl compound solutions in DMSO. After 30 minutes, 5 μL substrate is added, and the reaction incubated at ambient temperature for an additional 60 minutes. The reaction is then quenched with 10 μL of 6M guanidine-HCl containing 50 μM CPM (7-diethylamino-3-(4′-maleimidylphenyl)-4-methylcoumarin (CPM; thio-reactive dye), and incubated for 30 minutes. The plate is read on an Envision (PerkinElmer) or equivalent plate reader using a 380 nm excitation wavelength filter, and a 486 nm emission filter. Data fitting and compound preparations are done as described above.

Chain of FAS (P49327 whole entry): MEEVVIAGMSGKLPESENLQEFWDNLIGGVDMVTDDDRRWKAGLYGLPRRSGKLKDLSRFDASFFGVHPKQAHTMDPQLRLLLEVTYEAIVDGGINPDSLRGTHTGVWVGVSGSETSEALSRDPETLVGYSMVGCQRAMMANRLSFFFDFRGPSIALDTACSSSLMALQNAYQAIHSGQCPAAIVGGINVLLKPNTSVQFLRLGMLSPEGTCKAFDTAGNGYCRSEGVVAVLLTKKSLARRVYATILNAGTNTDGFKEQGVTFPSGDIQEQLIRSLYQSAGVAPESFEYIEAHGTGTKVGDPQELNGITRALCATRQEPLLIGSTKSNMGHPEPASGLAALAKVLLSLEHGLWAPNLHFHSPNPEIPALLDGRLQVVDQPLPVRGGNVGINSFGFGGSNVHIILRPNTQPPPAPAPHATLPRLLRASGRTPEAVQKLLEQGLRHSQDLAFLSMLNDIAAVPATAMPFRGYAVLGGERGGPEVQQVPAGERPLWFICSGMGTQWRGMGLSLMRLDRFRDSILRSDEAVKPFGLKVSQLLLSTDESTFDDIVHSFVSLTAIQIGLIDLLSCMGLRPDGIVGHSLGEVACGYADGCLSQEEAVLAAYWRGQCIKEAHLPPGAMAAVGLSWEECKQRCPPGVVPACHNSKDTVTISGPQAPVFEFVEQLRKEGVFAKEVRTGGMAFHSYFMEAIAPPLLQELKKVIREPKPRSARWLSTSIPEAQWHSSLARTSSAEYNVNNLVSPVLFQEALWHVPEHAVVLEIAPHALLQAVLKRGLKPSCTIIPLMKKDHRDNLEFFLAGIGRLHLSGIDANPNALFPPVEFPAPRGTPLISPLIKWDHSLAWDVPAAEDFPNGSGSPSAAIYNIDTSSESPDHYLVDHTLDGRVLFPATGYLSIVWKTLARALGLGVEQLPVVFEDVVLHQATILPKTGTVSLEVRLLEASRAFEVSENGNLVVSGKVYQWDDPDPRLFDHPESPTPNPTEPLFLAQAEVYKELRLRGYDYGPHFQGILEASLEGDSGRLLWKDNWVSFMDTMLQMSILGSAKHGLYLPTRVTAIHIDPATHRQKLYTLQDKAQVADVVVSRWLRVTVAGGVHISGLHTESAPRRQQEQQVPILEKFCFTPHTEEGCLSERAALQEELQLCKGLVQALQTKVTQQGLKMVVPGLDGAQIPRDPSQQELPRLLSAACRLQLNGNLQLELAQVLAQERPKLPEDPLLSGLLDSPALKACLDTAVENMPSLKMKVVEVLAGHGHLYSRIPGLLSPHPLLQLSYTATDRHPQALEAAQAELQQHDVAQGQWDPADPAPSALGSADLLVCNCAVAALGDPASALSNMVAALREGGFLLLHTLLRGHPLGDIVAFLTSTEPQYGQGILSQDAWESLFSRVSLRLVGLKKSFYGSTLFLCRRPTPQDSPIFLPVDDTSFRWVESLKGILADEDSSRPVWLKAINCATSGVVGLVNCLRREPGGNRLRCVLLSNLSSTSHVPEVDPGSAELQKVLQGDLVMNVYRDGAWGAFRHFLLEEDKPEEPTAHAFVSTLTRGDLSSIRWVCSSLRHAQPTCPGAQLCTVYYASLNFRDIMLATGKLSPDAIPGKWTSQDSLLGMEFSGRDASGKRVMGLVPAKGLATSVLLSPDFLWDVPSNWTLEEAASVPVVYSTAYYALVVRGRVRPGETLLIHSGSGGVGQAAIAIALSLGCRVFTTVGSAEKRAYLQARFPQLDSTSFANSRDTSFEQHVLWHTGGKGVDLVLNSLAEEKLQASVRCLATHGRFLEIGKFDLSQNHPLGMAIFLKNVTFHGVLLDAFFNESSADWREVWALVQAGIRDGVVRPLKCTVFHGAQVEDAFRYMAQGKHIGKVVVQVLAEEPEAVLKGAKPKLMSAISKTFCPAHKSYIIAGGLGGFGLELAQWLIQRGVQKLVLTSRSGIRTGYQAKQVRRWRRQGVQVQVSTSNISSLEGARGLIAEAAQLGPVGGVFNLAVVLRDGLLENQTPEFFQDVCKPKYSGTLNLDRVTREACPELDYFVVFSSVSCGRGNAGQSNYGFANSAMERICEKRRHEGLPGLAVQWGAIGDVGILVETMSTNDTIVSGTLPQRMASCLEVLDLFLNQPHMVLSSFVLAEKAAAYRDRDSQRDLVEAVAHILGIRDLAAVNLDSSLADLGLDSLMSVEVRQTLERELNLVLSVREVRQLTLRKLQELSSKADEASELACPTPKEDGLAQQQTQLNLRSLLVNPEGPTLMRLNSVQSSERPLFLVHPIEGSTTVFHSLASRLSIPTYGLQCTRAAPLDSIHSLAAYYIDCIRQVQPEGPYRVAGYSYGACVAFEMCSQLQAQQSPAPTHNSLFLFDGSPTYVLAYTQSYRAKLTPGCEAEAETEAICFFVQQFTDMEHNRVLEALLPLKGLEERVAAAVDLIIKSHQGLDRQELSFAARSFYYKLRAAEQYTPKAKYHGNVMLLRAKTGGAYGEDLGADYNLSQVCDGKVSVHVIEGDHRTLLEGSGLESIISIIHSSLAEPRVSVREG

IC50 | Compound
200 nM | COc1cc(-c2ccc(-c3nncn3C[C@@H]3CCN(C(=O)C4CC4)C3)c(F)c2)ccc1C [Example 98, 4-{[(3S)-1-(cyclopropylcarbonyl)-3-pyrrolidinyl]methyl}-3-[3-fluoro-4′-methyl-3′-(methyloxy)-4-biphenylyl]-4H-1,2,4-triazole]
63 nM | O=C(C1CC1)N1CC[C@@H](Cn2cnnc2-c2ccc(-c3cccc(-c4cc[nH]n4)c3)cc2F)C1 [Example 87, 4-{[(3S)-1-(cyclopropylcarbonyl)-3-pyrrolidinyl]methyl}-3-[3-fluoro-3′-(1H-pyrazol-5-yl)-4-biphenylyl]-4H-1,2,4-triazole]
1520 nM | Cc1nc(-c2ccc(-c3ccc(F)cc3)cc2)n(CC2CCN(C(=O)C3CC3)C2)c1C (stereo not drawn) [Example 41, 1-{[1-(cyclopropylcarbonyl)-3-pyrrolidinyl]methyl}-2-(4′-fluoro-4-biphenylyl)-4,5-dimethyl-1H-imidazole]
596 nM | Cc1nnc(-c2ccc(-c3ccc(Cl)cc3Cl)cc2)n1C[C@@H]1CCN(C(=O)C2CC2)C1 [Example 15, 4-{[(3S)-1-(cyclopropylcarbonyl)-3-pyrrolidinyl]methyl}-3-(2′,4′-dichloro-4-biphenylyl)-5-methyl-4H-1,2,4-triazole]
251 nM | Cn1ccc2cc(-c3ccc(-c4nncn4C[C@@H]4CCN(C(=O)C5CC5)C4)cc3)cnc21 [Example 73, 5-[4-(4-{[(3S)-1-(cyclopropylcarbonyl)-3-pyrrolidinyl]methyl}-4H-1,2,4-triazol-3-yl)phenyl]-1-methyl-1H-pyrrolo[2,3-b]pyridine]
752 nM | COc1ccc(-c2ccc(-c3nnnn3C[C@@H]3CCN(C(=O)C4CC4)C3)cc2)c(Cl)c1 [Example 5, 5-[2′-chloro-4′-(methyloxy)-4-biphenylyl]-1-{[(3R)-1-(cyclopropylcarbonyl)-3-pyrrolidinyl]methyl}-1H-tetrazole]
40 nM | O=C(C1CC1)N1CC[C@@H](Cn2nncc2-c2ccc(-c3ccc4[nH]ncc4c3)cc2)C1 [Example 11, 5-[4-(1-{[(3R)-1-(cyclopropylcarbonyl)-3-pyrrolidinyl]methyl}-1H-1,2,3-triazol-5-yl)phenyl]-1H-indazole]
190 nM | O=C(C1CC1)N1CC[C@@H](Cn2ccnc2-c2ccc(-c3ccccc3)cc2)C1 [Example 26, 2-(4-biphenylyl)-1-{[(3S)-1-(cyclopropylcarbonyl)-3-pyrrolidinyl]methyl}-1H-imidazole]
13 nM | O=C(C1CC1)N1CC[C@@H](Cn2cnnc2-c2ccc(-c3cccc4[nH]ncc34)cc2)C1 [Example 67, 4-[4-(4-{[(3S)-1-(cyclopropylcarbonyl)-3-pyrrolidinyl]methyl}-4H-1,2,4-triazol-3-yl)phenyl]-1H-indazole]
602 nM | Cc1cnc(-c2ccc(-c3ccc(Cl)cc3Cl)cc2)n1CC1CCN(C(=O)C2CC2)C1 (stereo not drawn) [Example 54, 1-{[1-(cyclopropylcarbonyl)-3-pyrrolidinyl]methyl}-2-(2′,4′-dichloro-4-biphenylyl)-5-methyl-1H-imidazole]
631 nM | O=C(C1CC1)N1CC(Cn2cnnc2-c2ccc(-c3ccc4ncccc4c3)cc2F)C1 [Example 96, 6-[4-(4-{[1-(cyclopropylcarbonyl)-3-azetidinyl]methyl}-4H-1,2,4-triazol-3-yl)-3-fluorophenyl]quinoline]
23 nM | O=C(C1CC1)N1CC[C@@H](Cn2ccnc2-c2ccc(-c3ccc4occc4c3)cc2)C1 [Example 34, 2-[4-(1-benzofuran-5-yl)phenyl]-1-{[(3S)-1-(cyclopropylcarbonyl)-3-pyrrolidinyl]methyl}-1H-imidazole]
